Data as given in patent publication US20240207414A1, “DISULFIDE-BASED PRODRUG COMPOUND” (Ludwig-Maximilians-Universitat Munchen, priority 2021, published 2024).

Experiments:
HeLa cells = assay: In vitro cell viability assay P21, P22 (resazurin); type: cell-based, human; conditions: 48 h
Experimental: (§1) Assay Conditions: Cells (A549 cells for P19 and P20; HeLa cells for P21 and P22) were cultured under standard conditions (Gao, L. et al. Cell Chemical Biology 2021, 28, 1-14. https://doi.org/10.1016/j.chembiol.2020.11.007), left to adhere for 24 h, then P19, P20, P21 or P22 were added from DMSO stock solution and adjusted to 1% vol DMSO. Cells were incubated under standard conditions for 48 h, then 0.20 volume equivalents of a solution of resazurin in PBS (0.15 mg/mL) were added and incubated for 3 hours, then fluorescence (ex 544 nm, em 590 nm) was detected on a fluorescence platereader. Cell viability (%) was calculated relative to a control experiment (no compound) from the fluorescence values.

[1] = Chemical reductant assay: GSH challenge (cell-free); type: physicochemical; conditions: aq. TE buffer pH 7.4, 37° C., 6 h, GSH 0.01-10 mM
Text: (§2) This assay (see FIG. 1) examined the stability of disulfide-based reduction-triggered compounds of the invention when exposed to monothiol reductants, primarily the major physiological cellular monothiol GSH, and dithiol reductants like the disulfide reductant dithiothreitol (DTT), as evaluated in a cell-free assay, to determine whether these compounds can be useful for selective release.
(§3) Assay Conditions: A black 96-well plate with black bottom was charged with solutions of fluorophore-releasing reduction-triggered probes that are compounds of the invention (P1, P2, P3, P4 and P5) or that are not compounds of the invention and reveal the performance of prior art systems (X19) (80 μL; 25 μM in aq. TE buffer (pH 7.4) and 1.25% vol DMSO). Solutions of challenge species chosen from the monothiol glutathione (GSH, 0.1-50 mM) and the dithiol reductant dithiothreitol (DTT, 0.1-50 mM) or phosphine reductant tris-(2-carboxyethyl) phosphine (TCEP); (20 μL; 1 mM in aq. TE buffer (pH 7.4) were added and the reaction mixtures were incubated at 37° C. for 6 h while measuring fluorescence intensity over time [F(t)] using a BMG Labtech FLUOstar Omega platereader (λexc=355 nm, Δem=530 nm for PQ-OH-releasing probes X19, P1 and P2; Δexc=485 nm, Δem=530 nm for MF-OH-releasing probes P3 and P4.
(§4) Data Representation: F^max is the maximum possible fluorescence increase corresponding to complete reduction-triggered cargo release, i.e. the fluorescence intensity increase from time zero to signal plateau under TCEP incubation PQ-OH-releasing probes. F(t)/F^max(t) thus gives the timecourse measurements of fluorescence intensity, as a fraction of the maximum possible fluorescence signal. F^sat is the endpoint fluorescence intensity increase for each condition, ie. F^sat=(F(6 h)). F^sat/F^max thus gives the assay endpoint fluorescence intensity increase, as a fraction of the maximum possible fluorescence signal. In the GSH timecourse measurements shown in FIG. 1, all datasets annotated with concentrations only (0.01-10 mM) refer to GSH challenges, while datasets for TCEP positive control (100 μM) and no-reductant control (blank) are shown for comparison. The dose-response plots show F^sat/F^max for the different ratios between probe and GSH or probe and DTT concentrations, with a logarithmic horizontal scale.

HeLa, A549 and MEF cells = assay: Cellular reduction assay (FIG. 3); type: cell-based, human, mouse; conditions: 100 μM, 1% vol DMSO, cells under ordinary conditions
Experimental: Assay Conditions: Cells were cultured under standard conditions (Gao, L. et al. Cell Chemical Biology 2021, 28, 1-14. https://doi.org/10.1016/j.chembiol.2020.11.007), left to adhere for 24 h, then compounds were added to 100 μM with 1% vol DMSO. Fluorescence timecourse measurements were acquired as in the chemoreductant assay, with all conditions in triplicates.
Data Representation: F(t)-F(0) is the fluorescence intensity signal increase as compared to time zero signal (fluorescence intensity immediately following compound addition, before probe activation can occur), in arbitrary units although with the same detection settings for all probes releasing the same cargo. This corresponds to reduction-triggered cargo release. “ctrf” indicates cells not treated with probes, as a negative control.

[2] = Chemical reductant assay: DTT challenge (cell-free); type: physicochemical; conditions: aq. TE buffer pH 7.4, 37° C., 6 h
Text: as §2, §3, §4

A549 cells = assay: In vitro cell viability assay P19, P20 (resazurin); type: cell-based, human; conditions: 48 h
Experimental: as §1

CC[C@@]1(O)C(=O)OCc2c1cc1n(c2=O)Cc2cc3c(CN(C)C)c(OC(=O)N4CCCC5CSSC[C@H]54)ccc3nc2-1 (mixture of isomers) [Compound P21, (R)-10-((dimethylamino)methyl)-4-ethyl-4-hydroxy-3,14-dioxo-3,4,12,14-tetrahydro-1H-pyrano[3′,4′:6,7]indolizino[1,2-b]quinolin-9-yl (cis)-hexahydro-[1,2]dithiino[4,5-b]pyridine-1(2H)-carboxylate]
tolerability in cells compared with Irinotecan (HeLa cells): equally well-tolerated in cells as the approved cancer prodrug Irinotecan
toxicity to cells compared with SN-38 (HeLa cells): significantly less toxic to cells than the parent compound

COc1ccc2c(c1)Oc1cc(OC(=O)N3CCC[C@@H]4CSSC[C@@H]43)ccc1C21OC(=O)c2ccccc21 (mixture of isomers) [Compound P4, 3′-methoxy-3-oxo-3H-spiro[isobenzofuran-1,9′-xanthen]-6′-yl-cis-hexahydro-[1,2]dithiino[4,5-b]pyridine-1(2H)-carboxylate]
cargo release (fluorescence) when challenged with monothiol reductant GSH [1]: do not release cargo
cargo release inside cells (fluorescence signal increase over time) (HeLa, A549 and MEF cells): do not release cargo inside cells under ordinary conditions
activation / cargo release by dithiol reductant DTT [2]: efficiently activated by dithiol-type reductants

COc1ccc2c(c1)Oc1cc(OC(=O)N3CCC[C@@H]4CSSC[C@H]43)ccc1C21OC(=O)c2ccccc21 (mixture of isomers) [Compound P3, 3′-methoxy-3-oxo-3H-spiro[isobenzofuran-1,9′-xanthen]-6′-yl-(trans)-hexahydro-[1,2]dithiino[4,5-b]pyridine-1(2H)-carboxylate]
cargo release (fluorescence) when challenged with monothiol reductant GSH [1]: do not release cargo
activation / cargo release by dithiol reductant DTT [2]: efficiently activated by dithiol-type reductants

O=C(Oc1ccc(Cl)cc1-c1nc2ccc(Cl)cc2c(=O)[nH]1)N1CCN[C@@H]2CSSC[C@H]21 (racemic) [Compound P5, 4-chloro-2-(6-chloro-4-oxo-3,4-dihydroquinazolin-2-yl)phenyl trans-hexahydro-[1,2]dithiino[4,5-b]pyrazine-1(2H)-carboxylate]
cargo release (fluorescence) when challenged with monothiol reductant GSH [1]: does release cargo very efficiently
cargo release inside cells (fluorescence signal increase over time) (HeLa, A549 and MEF cells): substantially release cargo inside cells cultured under ordinary conditions
activation / cargo release by dithiol reductant DTT [2]: unusually strong and fast response

CCc1c2c(nc3ccc(OC(=O)N4CCN(C(=O)CCC(=O)N5CCN(C)CC5)[C@@H]5CSSC[C@@H]54)cc13)-c1cc3c(c(=O)n1C2)COC(=O)[C@]3(O)CC (racemic) [Compound P20, (R)-4,11-diethyl-4-hydroxy-3,14-dioxo-3,4,12,14-tetrahydro-1H-pyrano[3′,4′:6,7]indolizino[1,2-b]quinolin-9-yl (cis)-4-(4-(4-methylpiperazin-1-yl)-4-oxobutanoyl)hexahydro-[1,2]dithiino[4,5-b]pyrazine-1(2H)-carboxylate]
tolerability in cells compared with Irinotecan (A549 cells): equally well-tolerated in cells as the approved cancer prodrug Irinotecan
toxicity to cells compared with SN-38 (A549 cells): significantly less toxic to cells than the parent compound

CCc1c2c(nc3ccc(OC(=O)N4CCN[C@@H]5CSSC[C@@H]54)cc13)-c1cc3c(c(=O)n1C2)COC(=O)[C@]3(O)CC (racemic) [Compound P19, (R)-4,11-diethyl-4-hydroxy-3,14-dioxo-3,4,12,14-tetrahydro-1H-pyrano[3′,4′:6,7]indolizino[1,2-b]quinolin-9-yl (cis)-hexahydro-[1,2]dithiino[4,5-b]pyrazine-1(2H)-carboxylate]
tolerability in cells compared with Irinotecan (A549 cells): equally well-tolerated in cells as the approved cancer prodrug Irinotecan
toxicity to cells compared with SN-38 (A549 cells): significantly less toxic to cells than the parent compound
